US8546430B2, “Thalidomide analogs” (P2D, Inc., priority 2003, dated 2013)
“Also recorded” adds a separate entry of the source. Values belong to the compound of their own block, whether it stands above or below them.

Key:
rat aortic ring = test: Rat aortic ring microvessel growth assay; assay type: cell-based; settings: 0.1-20 μg/ml daily for 4 days; FIGS. 2-11
Description: The angiogenesis modulating activity of representative compounds was assessed in a rat aortic ring microvessel growth assay. Briefly, twelve-well tissue culture plates were coated with 250 μl of Matrigel (Becton-Dickinson, Bedford, Mass.) and allowed to gel for 30 min at 37° C. and 5% CO2. Thoracic aortas were excised from 8- to 10-week-old male Sprague Dawley rats. After careful removal of fibroadipose tissues, the aortas were cut into 1-mm-long cross-sections, placed on Matrigel-coated wells, and covered with an additional 250 μl of Matrigel. After the second layer of Matrigel had set, the rings were covered with EGM-II and incubated overnight at 37° C. and 5% CO2. EGM-II consists of endothelial cell basal medium (EBM-II; Clonetics, San Diego, Calif.) plus endothelial cell growth factors provided as the EGM-II Bulletkit (Clonetics). The culture medium was subsequently changed to EBM-II supplemented with 2% fetal bovine serum, 0.25 μg/ml amphotericin B, and 10 μg/ml gentamicin. Aortic rings were treated daily with either the vehicle (0.5% DMSO), carboxyamidotriazole (CAI, 12 μg/ml), thalidomide or thalidomide analogs (0.1-20 μg/ml) for 4 days and photographed on the 5th day using a ×2.5 objective. CAI, a known antiangiogenic agent, was used at higher than clinically achievable concentration as a positive control. Experiments were repeated four times using aortas from four different rats. The area of angiogenic sprouting, reported in square pixels, was quantified using Adobe PhotoShop. Further details of the method are provided in Luzzio et al., J Med Chem.; 46:3793-9, 2003, which is incorporated by reference herein. It should be understood that this method can be used as an assay to rapidly select compounds having a desired angiogenic or anti-angiogenic effect, for example, for use in the disclosed methods of treating a subject.

PBMC = test: Cellular viability of PBMCs by MTS assay; assay type: cell-based, human
Description: (§1) The action of the these thiothalidomide analogs in inhibiting TNF-α secretion was assessed in human peripheral blood mononuclear cells (PBMC) and the results are shown in Table 1. Freshly prepared PBMCs were utilized in all studies. Blood, 40 ml, was drawn from a volunteer, immediately mixed with 50 U/ml Na heparin and was diluted to 50 ml total volume with sterile PBS. Samples, 20 ml, of this preparation then were layered on 20 ml Ficoll-Paque and were centrifuged (800 g, 20 min). The Ficoll/serum interface, containing PBMCs, was collected, diluted to 200 ml with PBS, and then was centrifuged (800 g, 15 min) to pellet the cells. Thereafter, the recovered pellet was re-suspended in 37° C. tissue culture medium (RPMI/1 mM Sodium pyruvate/10% heat inactivated FBS/2 mM Glutamax) and placed on ice. Recovered cells were counted, pipetted (200 ul of 5×10^5/ml) into 96 well plates, and incubated for an hour (37° C., 5% CO2). Thereafter, appropriate concentrations of test compounds or vehicle (10 ul DMSO) were added to duplicate wells. Following a further hour of incubation, a 10 ul sample of lipopolysaccharide (LPS) (100 ng/ml in supplemented medium) or vehicle was added to induce stimulated and unstimulated cells, respectively, and the cells were incubated overnight. Sixteen hours later, supernatants were collected for quantification of TNF-α levels by ELISA assay (Pierce-Endogen human TNF-α mini kit, Rockford, Ill.) and the use of specific capture and detection monoclonal antibodies, M303E and M302B (Pierce-Endogen), respectively. ELISA plates were read at λ=450 nm and TNF-α levels were determined from a six-point calibration curve that was run concurrently with the test samples. The effect of test drug concentrations on the cellular viability of PBMCs was assessed by MTS assay (Promega, Madison, Wis.) of the cells that provided the supernatant samples assayed for TNF-α levels, described above. It should be understood that this method can be used to test any of the disclosed compounds as a screening assay for readily determining their TNF-α modulating activity, and for selecting them for use in the disclosed method of treating a subject.

TNF-α = test: Inhibition of LPS-induced TNF-α secretion in human PBMC (ELISA); assay type: cell-based; settings: for IC50 / inhibition at 30 µM / % Inhibition at 30 μM: LPS-induced TNF-α production in PBMC; for TNF-α inhibitory activity (in words): LPS-stimulated PBMC
Description: as §1

Compound: CC12CCC(C(=O)NC3CCC(=O)NC3=O)(OC1=O)C2(C)C (centres unmarked) [3-Camphanic amino-2,6-piperidinedione]
Angiogenic modulating activity (in words) (rat aortic ring): potent angiogenic activity at all concentrations tested; also recorded: exhibited angiogenic activity

Compound: COc1ccc(N2C(=O)c3ccccc3C2=O)c(OC)n1 [Compound 5, 1,3-Dioxo-2-(2,6-dimethoxypyridin-3-yl)-isoindoline]
Angiogenic modulating activity (in words) (rat aortic ring): angiogenic activity at all concentrations tested

Compound: Br.COc1ccc(N2C(=O)c3ccccc3C2=O)c(O)n1 [Compound 6, 1,3-Dioxo-2-(2-hydroxy-6-methoxypyridin-3-yl)-isoindoline hydrobromide]
Angiogenic modulating activity (in words) (rat aortic ring): anti-angiogenic activity in the rat aortic ring assay at all concentrations tested

Compound: NC(=O)c1cc2ccccc2cc1C(=O)NC1CCC(=O)NC1=O (centres unmarked) [Compound 14, N-(2,6-dioxopiperidin-3-yl)-2,3-naphthalenedicarboxamide]
melting point: > 300 °C

Compound: CC(=O)Oc1ccccc1C(=O)NC1CCC(=O)NC1=O (centres unmarked) [Compound 24, 2-acetoxy-N-(2,6-dioxopiperidin-3-yl)benzamide]
Angiogenic modulating activity (in words) (rat aortic ring): potent angiogenic activity

Compound: O=C1NC(=S)CCC1N1C(=O)c2ccccc2C1=O (centres unmarked) [Compound 205, 2-(2-Oxo-6-thioxo-3-piperidinyl)-1H-isoindole-1,3(2H)-dione]
Cell viability at 0.3 μM (PBMC): 96% | Cell viability at 3 μM (PBMC): 90% | Cell viability at 30 μM (PBMC): > 100% | Angiogenic modulating activity (in words) (rat aortic ring): anti-angiogenic activity at higher concentration, and some angiogenic activity at lower concentrations | Inhibition of TNF-α secretion at 30 μM (in words) (TNF-α): only marginal activity | IC50 (TNF-α; Homo sapiens): > 30 µM | inhibition at 30 µM (TNF-α; Homo sapiens): 31% | melting point: 225 to 226 °C

Compound: COC(=O)CCC(C(=O)OC)N1C(=O)c2ccccc2C1=S (centres unmarked) [Compound 208, Dimethyl 2-(1,3-dihydro-1-oxo-3-thioxo-2H-isoindol-2-yl)-pentanedioate]
Toxicity / cytotoxicity (in words) (PBMC): without toxicity | Cell viability at 0.3 μM (PBMC): 96% | Cell viability at 3 μM (PBMC): 99% | Cell viability at 30 μM (PBMC): 93% | IC50 (TNF-α; Homo sapiens): 20 µM | inhibition at 30 µM (TNF-α; Homo sapiens): 56%

Compound: COC(=O)CCC(C(=O)OC)N1C(=S)c2ccccc2C1=S (centres unmarked) [Compound 209, Dimethyl 2-(1,3-dihydro-1,3-dithioxo-2H-isoindol-2-yl)-pentanedioate]
Toxicity / cytotoxicity (in words) (PBMC): induced cellular toxicity at lower concentrations | Cell viability at 0.3 μM (PBMC): 89% | Cell viability at 3 μM (PBMC): 86% | Cell viability at 30 μM (PBMC): 57% | IC50 (TNF-α; Homo sapiens): 10 µM | inhibition at 30 µM (TNF-α; Homo sapiens): 85% | Fold more potent than 208 (TNF-α; TNF-α inhibitory action): 2 fold

Compound: O=C1c2ccccc2C(=NCc2ccccc2)N1Cc1ccccc1 [Compound 210, 3-Benzylimino-2-benzyl-2,3-dihydroisoindol-1-one]
Angiogenic modulating activity (in words) (rat aortic ring): exhibited angiogenic activity

Compound: O=C(O)CCC(C(=O)O)N1C(=O)c2ccccc2C1=S (centres unmarked) [Compound 211, 2-(1,3-Dihydro-1-oxo-3-thioxo-2H-isoindol-2-yl)-pentanedioic acid]
Cell viability at 0.3 μM (PBMC): 93% | Cell viability at 3 μM (PBMC): 93% | Cell viability at 30 μM (PBMC): 86% | Angiogenic modulating activity (in words) (rat aortic ring): angiogenic activity at all concentrations tested | IC50 (TNF-α; Homo sapiens): > 30 µM | inhibition at 30 µM (TNF-α; Homo sapiens): 20% | TNF-α inhibitory activity (in words) (TNF-α): lowered potency | melting point: 157 °C

Compound: O=C1CCC(N2C(=O)c3ccccc3C2=S)C(=O)N1 (centres unmarked) [Compound 212, 2,3-Dihydro-3-thioxo-2-(2,6-dioxo-3-piperidinyl)-1H-isoindol-1-one]
Cell viability at 0.3 μM (PBMC): 94% | Cell viability at 3 μM (PBMC): 100% | Cell viability at 30 μM (PBMC): 94% | Inhibition of TNF-α secretion at 30 μM (in words) (TNF-α): only marginal activity | IC50 (TNF-α; Homo sapiens): > 30 µM | inhibition at 30 µM (TNF-α; Homo sapiens): 23% | melting point: 255 °C

Compound: O=C1c2ccccc2C(=O)N1C1CCC(=S)NC1=S (centres unmarked) [Compound 213, 2-(2,6-Dithioxo-3-piperidinyl)-1H-isoindole-1,3(2H)-dione]
Toxicity / cytotoxicity (in words) (PBMC): induced increasing cytotoxicity at higher concentrations; also recorded: induces toxicity at high concentration | Cell viability at 0.3 μM (PBMC): 94% | Cell viability at 3 μM (PBMC): 87% | Cell viability at 30 μM (PBMC): 69% | Angiogenic modulating activity (in words) (rat aortic ring): anti-angiogenic activity at all concentrations tested | IC50 (TNF-α; Homo sapiens): 20 µM | inhibition at 30 µM (TNF-α; Homo sapiens): 52% | TNF-α inhibitory activity (in words) (TNF-α): less active than dithioglutarimide 219 | melting point: 263 to 265 °C

Second part, led by results:

IC50 (TNF-α; Homo sapiens): > 30 µM | melting point: 135 °C
Compound: O=C1CCCC(=S)N1 [Compound 218, 6-Thioxo-2-piperidinone]
Cell viability at 0.3 μM (PBMC): 86% | Cell viability at 3 μM (PBMC): 84% | Cell viability at 30 μM (PBMC): > 100% | Inhibition of TNF-α secretion at 30 μM (in words) (TNF-α): minimally inhibited TNF-α secretion | inhibition at 30 µM (TNF-α; Homo sapiens): 15%

melting point: 114 °C
Compound: O=C1c2ccccc2C(=O)N1C1CC=CCC1 (centres unmarked) [Compound 221, 2-(3-Cyclohexenyl)-1H-isoindole-1,3(2H)-dione]

IC50 (TNF-α): 15 µM
Compound: S=C1c2ccccc2C(=S)N1C1CC=CCC1 (centres unmarked) [Compound 222, 2-(3-Cyclohexenyl)-1H-isoindol-1,3(2H)-dithione]
Toxicity / cytotoxicity (in words) (PBMC): some toxicity at 30 μM | Cell viability at 0.3 μM (PBMC): 96% | Cell viability at 3 μM (PBMC): 94% | Cell viability at 30 μM (PBMC): 50% | Angiogenic modulating activity (in words) (rat aortic ring): anti-angiogenic activity at higher concentrations and angiogenic activity at lower concentrations | % Inhibition at 30 μM (TNF-α): 86% | TNF-α inhibitory activity (in words) (TNF-α): active TNF-α inhibitors

IC50 (TNF-α; Homo sapiens): 16 µM | melting point: 67 to 68 °C
Compound: O=C1c2ccccc2C(=S)N1C1CC=CCC1 (centres unmarked) [Compound 223, 2,3-dihydro-3-thioxo-2-(3-cyclohexenyl)-1H-isoindol-1-one]
Toxicity / cytotoxicity (in words) (PBMC): some toxicity at 30 μM | Cell viability at 0.3 μM (PBMC): 99% | Cell viability at 3 μM (PBMC): 89% | Cell viability at 30 μM (PBMC): 57% | inhibition at 30 µM (TNF-α; Homo sapiens): 85% | TNF-α inhibitory activity (in words) (TNF-α): active TNF-α inhibitors

IC50 (TNF-α; Homo sapiens): 3 µM
Compound: S=C1NC(=S)c2ccccc21 [Compound 224, dithiophthalimide]
Toxicity / cytotoxicity (in words) (PBMC): associated with toxicity at 30 μM | Cell viability at 0.3 μM (PBMC): 83% | Cell viability at 3 μM (PBMC): 83% | Cell viability at 30 μM (PBMC): 54% | Angiogenic modulating activity (in words) (rat aortic ring): angiogenic activity at all concentrations tested | inhibition at 30 µM (TNF-α; Homo sapiens): 95% | TNF-α inhibitory activity (in words) (TNF-α): potent activity

EC50 (TNF-α; Homo sapiens, PBMC, TNF-α assay of Example 11): 0.4 µM
Compound: Nc1ccc2c(=O)n(C3CCC(=O)NC3=O)c(=O)oc2c1 (centres unmarked) [Compound 228, 3-[2′,6′-piperidinedion-3′-yl]-7-amino-2H-1,3-benzoxazine-2,4(3H)-dione]
TNF-α inhibitory activity (in words) (TNF-α): potent inhibitory action on TNF-α

IC50 (TNF-α): > 30 µM
Compound: Monothiophthalimide [Compound 225]
Toxicity / cytotoxicity (in words) (PBMC): without toxicity | Cell viability at 0.3 μM (PBMC): 94% | Cell viability at 3 μM (PBMC): 94% | Cell viability at 30 μM (PBMC): > 100% | Inhibition of TNF-α secretion at 30 μM (in words) (TNF-α): marginal TNF-α activity | % Inhibition at 30 μM (TNF-α): 34%
